According to patent US11155546B2, “4,6,7-trisubstituted 1,2-dihydropyrrolo[3,4-c]pyridin/pyrimidin-3-one derivatives and uses thereof” (SHANGHAI HAIYAN PHARMACEUTICAL TECHNOLOGY CO., LTD., priority 2017, dated 2021):

Experiments:
BTK WT = BTK WT (Homo sapiens (Human), UniProt Q06187); test: Lantha screening kinase reaction, inhibition of BTK WT; type: biochemical
Protocol: The compound was predissolved in 100% DMSO. 10 mM drug stock solution was obtained by dissolution at room temperature and then serially diluted with 8 vol % DMSO solution to a final concentration of 10-0.005 μM. […] Among the wells, the kinase in the blank well was replaced with a reaction buffer and the kinase well (Enzyme) was not added with any drug. After shaking at 25° C. for 60 minutes in the dark, 10 μl of Detection Solution (mixture of Invitrogen PV3528 and EDTA, which was diluted with TR-FRET dilution buffer, the working concentration of EDTA was 5 mM, the working concentration of Lanthascreening Tb PY20 antibody was 0.2 nM) was added and shaken at room temperature for 30 minutes. The plates were read on a VictorX5 fluorescent plate reader (PerkinElmer) and the light absorption at an excitation wavelength of 340 nm and emission wavelengths of 500 nm and 520 nm was measured.
The calculation method for the inhibition ratio (referring to the specification of Invitrogen, PV3363) was as follows: Emission ratio (ER):Coumarin Emission (520 nm)/Fluorescein Emission (500 nm) 1. The inhibition ratio (IR):(ERkinase−ERtest compound)/(ERkinase−ERblank)×100%. 2.
The half-inhibitory concentration IC50 was calculated by fitting with XLFIT5.0 software (IDBS, UK).

wild-type EGFR kinase = wild-type EGFR kinase (Homo sapiens (Human), UniProt P00533); test: Wild type EGFR kinase inhibition test (z-lyte); type: biochemical; details: 10 μM ATP; read-out: EGFR WT IC50
Chain of wild-type EGFR kinase (P00533 25-1210): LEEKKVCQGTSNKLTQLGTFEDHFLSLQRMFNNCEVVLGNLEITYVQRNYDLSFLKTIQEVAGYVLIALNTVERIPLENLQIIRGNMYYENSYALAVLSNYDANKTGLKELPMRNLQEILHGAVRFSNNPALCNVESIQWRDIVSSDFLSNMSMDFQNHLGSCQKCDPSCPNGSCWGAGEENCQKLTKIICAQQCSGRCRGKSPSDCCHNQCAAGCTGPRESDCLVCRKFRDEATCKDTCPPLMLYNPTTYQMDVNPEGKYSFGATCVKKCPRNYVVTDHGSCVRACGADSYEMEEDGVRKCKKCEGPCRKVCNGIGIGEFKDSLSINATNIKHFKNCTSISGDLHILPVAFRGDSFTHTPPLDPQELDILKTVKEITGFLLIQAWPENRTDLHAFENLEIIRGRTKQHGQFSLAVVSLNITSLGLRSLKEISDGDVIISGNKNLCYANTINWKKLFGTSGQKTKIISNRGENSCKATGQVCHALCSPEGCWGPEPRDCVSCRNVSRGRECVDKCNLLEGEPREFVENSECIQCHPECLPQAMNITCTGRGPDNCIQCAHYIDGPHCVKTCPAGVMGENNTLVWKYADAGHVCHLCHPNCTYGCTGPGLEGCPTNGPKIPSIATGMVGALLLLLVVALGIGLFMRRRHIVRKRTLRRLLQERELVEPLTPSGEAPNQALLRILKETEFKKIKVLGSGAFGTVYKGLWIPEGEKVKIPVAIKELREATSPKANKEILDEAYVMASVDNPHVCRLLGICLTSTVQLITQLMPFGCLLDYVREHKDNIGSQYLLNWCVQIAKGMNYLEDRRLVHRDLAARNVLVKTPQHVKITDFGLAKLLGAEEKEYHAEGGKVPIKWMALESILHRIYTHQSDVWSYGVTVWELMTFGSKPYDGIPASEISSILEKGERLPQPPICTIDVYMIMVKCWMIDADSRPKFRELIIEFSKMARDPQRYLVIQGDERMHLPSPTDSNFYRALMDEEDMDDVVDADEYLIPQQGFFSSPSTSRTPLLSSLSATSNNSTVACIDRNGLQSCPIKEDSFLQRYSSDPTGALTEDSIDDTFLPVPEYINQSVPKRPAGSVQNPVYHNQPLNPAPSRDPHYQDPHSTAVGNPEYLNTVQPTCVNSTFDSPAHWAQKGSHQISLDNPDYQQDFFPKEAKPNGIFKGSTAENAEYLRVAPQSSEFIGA
Excerpt: All the following reagents used in z-lyte test are commercially available from Invitrogen.
The calculation method for the inhibition ratio (referring to the specification of Invitrogen, PV3363) was as follows: ER=Coumarin Emission(450 nm)/Fluorescein Emission(520 nm) 1. Phosphorylation ratio=(1−((ER×C3520nm−C3450nm)/((C1450nm−C3450nm)+ER×(C3520nm−C1520nm))))×100% 2. Inhibition ratio (IR)=(1−phosphorylation ratio of the test compound)/(phosphorylation ratio of C2))×100% 3.
The half-inhibitory concentration IC50 was calculated by fitting with XLFIT 5.0 software (IDBS, UK).

in vivo = details: male, ICR, mouse, in vivo, po, 30 mg/kg
Protocol: Test Animals: ICR mice, weight 28-30 g, male, totally 12, purchased from SLAC Laboratory Animal Co., Ltd. Mice were fasting one night before administration and freely fed 4 hours after administration.
Administration and Blood collection: 6 mice were administered intragastrically (PO) in a administered dosage of 30 mg/kg and a administered volume of 10 mL/kg. One administration route was subjected with 6 mice, blood samples of three mice were collected at one time point, and blood samples of another three mice were collected at alternate time point alternately. Blood was collected at 8 time points of 0.083, 0.25, 0.5, 1, 2, 4, 8, 24 h after administration respectively.
Animals were manually controlled at the time of collection and approximately 80 μL of blood was collected from the mice fundus venous plexus into a tube containing K2EDTA. The collected blood sample was put on wet ice, centrifuged within 15 min (8000 rpm, 4 min at 4° C.), and then the plasma sample was taken and stored at minus 20° C. till analysis. The compounds were prepared on the day of the experiment.
Solvent excipient information: DMSO (brand: Sigma, batch number: SHBD2446V); 2-hydroxypropyl-3-cyclodextrin (brand: Sigma, batch number: BCBN8227V), acetic acid (brand: Sinopharm Group, batch number: 20150616), sodium acetate (Brand: GENERAL-REAGENT, batch number: P1246037).
Preparation of a 3 mg/mL PO dosing solution: the solvent was a solution of 5% DMSO and 95% PH4.5 (sodium acetate-acetate) in 20% of 2-hydroxypropyl-β-cyclodextrin.
Analytical method: Plasma samples were analyzed by liquid chromatography-tandem mass spectrometry (Instrument type: Triple Quad™ 4000).
Preparation of the standard curve: preparing a standard curve of the test compound 1n the plasma matrix of ICR mice with a linear range of 1.00-3000 ng/mL, and preparing control samples at low, medium and high concentrations of 3 ng/mL, 500 ng/mL, and 2400 ng/mL respectively.
Treatment of biological samples: the frozen plasma samples were thawed on ice, and after the samples were thawed, they were vortexed on a vortex for 5 min. 20 μL of plasma sample was added to a 96-well plate, and 200 μL of acetonitrile (brand: Merck, Lot: 1854029643) containing an internal standard dexamethasone (Brand: NIFDC, Lot: 1N2V-DPGY, 2000 ng/mL) was added to precipitate protein, which were vortexed for 5 min, and then centrifuged at 3700 rpm and 4° C. for 15 min. The supernatant was extracted and twice centrifuged under the same conditions, and finally 2 μL of the supernatant solution was analyzed by LC-MS/MS.

Chain of BTK WT (Q06187 whole entry): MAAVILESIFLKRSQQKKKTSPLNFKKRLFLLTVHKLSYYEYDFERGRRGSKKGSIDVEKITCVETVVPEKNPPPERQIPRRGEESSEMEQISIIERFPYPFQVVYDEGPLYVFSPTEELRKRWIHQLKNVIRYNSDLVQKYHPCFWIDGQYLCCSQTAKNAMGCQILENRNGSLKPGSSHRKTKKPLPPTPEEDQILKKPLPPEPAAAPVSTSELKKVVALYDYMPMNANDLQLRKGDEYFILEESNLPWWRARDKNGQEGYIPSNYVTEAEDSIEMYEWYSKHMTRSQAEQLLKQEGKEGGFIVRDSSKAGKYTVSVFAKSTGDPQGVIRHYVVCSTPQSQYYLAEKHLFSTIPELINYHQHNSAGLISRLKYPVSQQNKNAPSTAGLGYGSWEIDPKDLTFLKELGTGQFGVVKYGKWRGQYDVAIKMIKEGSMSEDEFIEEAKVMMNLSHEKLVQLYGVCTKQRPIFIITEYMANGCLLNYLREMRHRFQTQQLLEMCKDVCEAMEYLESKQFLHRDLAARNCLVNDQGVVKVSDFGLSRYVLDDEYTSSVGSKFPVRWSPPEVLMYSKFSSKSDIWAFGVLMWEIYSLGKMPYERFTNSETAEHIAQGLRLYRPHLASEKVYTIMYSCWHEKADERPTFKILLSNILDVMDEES

Compound | IC50 (BTK WT) | IC50 (wild-type EGFR kinase) | other results
C=CC(=O)N1CCCC(N(C)c2nc3c(c(Nc4cnn(C)c4)n2)C(=O)NC3)C1 (stereo not drawn) [Compound G-75, 2-((1-acryloylpiperidin-3-yl)(methyl)amino)-4-(1-methyl-1H-pyrazole-4-ylamino)-6,7-dihydrogen-5H-pyrrolo[3,4-d]pyrimidine-5-one] | 6 nM | 1630 nM | 
C=CC(=O)N1CC(N(C)c2nc(-c3cnn(C)c3)c3c(c2F)CNC3=O)CCC1C (stereo not drawn) [Compound G-65, 6-((1-acryloyl-6-methylpiperidin-3-yl)(methyl)amino)-7-fluoro-4-(1-methyl-1H-pyrazole-4-yl)-1H-pyrrolo[3,4-c]pyridine-3(2H)-one] | 7 nM | > 10000 nM | 
C=CC(=O)N1CCCCC(N(C)c2nc(Nc3ccc(N4CCOCC4)cc3)c3c(c2F)CNC3=O)C1 (stereo not drawn) [Compound G-73, 6-((1-acryloylazacycloheptan-3-yl)(methyl)amino)-7-fluoro-4-(4-morpholin)-1H-pyrrolo[3,4-c]pyridine-3(2H)-one] | 5 nM | 1560 nM | 
C=CC(=O)N1CCCCC(Nc2nc(-c3cnn(C)c3)c3c(c2F)CNC3=O)C1 (stereo not drawn) [Compound G-47] | 75 nM | > 10000 nM | 
C=CC(=O)N1CCC[C@H](Nc2nc(-c3cnn(C)c3)c3c(c2F)CNC3=O)[C@@H]1C [Compound G-109] | 62 nM | 6820 nM | 
C=CC(=O)N1CCC[C@@H](Nc2cc3c(c(Nc4ccc(N5CCOCC5)cc4)n2)C(=O)NC3)C1 [Compound G-107] | 5 nM |  | 
C=CC(=O)N1CCC2(CCN(c3nc(-c4cnn(C)c4)c4c(c3F)CNC4=O)C2)C1 (stereo not drawn) [Compound G-77] | 51 nM | > 10000 nM | 
C=CC(=O)N1CCCC(Nc2nc(Nc3ccc(N4CCN(C5COC5)CC4C)cn3)c3c(c2F)CNC3=O)C1 (stereo not drawn) [Compound G-22] | 66 nM |  | 
C=CC(=O)N1CCCC(Nc2nc(Nc3cnn(C)c3)c3c(c2F)CNC3=O)C1 (stereo not drawn) [Compound G-38] | 2 nM | 1290 nM | 
C=CC(=O)N1CCCC(Nc2nc3c(c(-c4cnn(C)c4)n2)C(=O)NC3)C1 (stereo not drawn) [Compound G-58, 2-(1-acryloylpiperidin-3-ylamino)-4-(1-methyl-1H-pyrazole-4-yl)-6,7-dihydrogen-5H-pyrrolo[3,4-d]pyrimidine-5(2H)-one] | 80 nM | > 10000 nM | 
C=CC(=O)N1CC2CCN(c3nc(Nc4cnn(C)c4)c4c(c3F)CNC4=O)C2C1 (stereo not drawn) [Compound G-84] | 89 nM | > 10000 nM | 
C=CC(=O)N1CCC[C@@H](N(C)c2nc(-c3c[nH]c(C)n3)c3c(c2F)CNC3=O)C1 [Compound G-105] | 8 nM |  | 
C=CC(=O)N1CCCC(Nc2nc(-c3cnn(C)c3)c3c(c2F)CNC3=O)C1 (stereo not drawn) [Compound G-54] | 15 nM | > 10000 nM | 
C=CC(=O)N1CCC[C@@H](N(C)c2nc(-c3cnc(C)s3)c3c(c2F)CNC3=O)C1 [Compound G-94] | 20 nM |  | 
C=CC(=O)N1CCC[C@@H](Nc2nc(Nc3ccc(N4CCN(C5COC5)C[C@@H]4C)c(F)c3)c3c(c2F)CNC3=O)C1 [Compound G-91] | 5 nM |  | AUC (in vivo): 3150 ng·h/mL; Cmax (in vivo): 2910 ng/mL; Tmax (in vivo): 0.25 h; bioavailability (in vivo): 21.3%; half-life (in vivo): 4.7 h
C=CC(=O)N1CCC(Nc2nc(Nc3ccc(OCCOC)cc3)c3c(c2F)CNC3=O)C1 (stereo not drawn) [Compound G-9] | 7 nM | 1010 nM | 
C=CC(=O)N1CCCC(Nc2nc(Nc3ccc(N4CCC(O)C(C)(C)C4)cn3)c3c(c2F)CNC3=O)C1 (stereo not drawn) [Compound G-21] | 59 nM | 8310 nM | 

Compound | IC50 (BTK WT) | IC50 (wild-type EGFR kinase) | other results
C=CC(=O)N1CCCC(N(C)c2nc(-c3cnc(C)s3)c3c(c2F)CNC3=O)C1 (stereo not drawn) [Compound G-66, 6-((1-acryloylpiperidin-3-yl)(methyl)amino)-7-fluoro-4-(2-methylthiazole-5-yl)-1H-pyrrolo[3,4-c]pyridine-3(2H)-one] | 15 nM | > 10000 nM | 
C=CC(=O)N1CCCC(Nc2nc(Nc3ccc(OCCO)cc3)c3c(c2F)CNC3=O)C1 (stereo not drawn) [Compound G-16] | 2 nM | 2750 nM | 
C=CC(=O)N1CCC[C@H](N(C)c2nc(-c3cnn(C)c3)c3c(c2F)CNC3=O)C1 [Compound G-112] | 18 nM | > 10000 nM | 
C=CC(=O)N1CCC[C@@H](Nc2nc(Nc3ccc(CN4CCOCC4)cc3)c3c(c2F)CNC3=O)C1 [Compound G-97] | 5 nM |  | 
C=CC(=O)N1CCCC(N(C)c2nc(Nc3cnn(C)c3)c3c(c2F)CNC3=O)C1 (stereo not drawn) [Compound G-70, 6-((1-acryloylpiperidin-3-yl)(methyl)amino)-7-fluoro-4-(1-methyl-1H-pyrazole-4-ylamino)-1H-pyrrolo[3,4-c]pyridine-3(2H)-one] | 5 nM | > 10000 nM | 
C=CC(=O)N1C[C@H](N(C)c2nc(Nc3ccc(N4CCOCC4)c(F)c3)c3c(c2F)CNC3=O)CC[C@@H]1C [Compound G-92] | 8 nM |  | 
C=CC(=O)N1CCCC(N(CC)c2nc(Nc3ccc(N4CCOCC4)cc3)c3c(c2F)CNC3=O)C1 (stereo not drawn) [Compound G-74, 6-((1-acryloylpiperidin-3-yl)(ethyl)amino)-7-fluoro-4-(4-morpholin)-1H-pyrrolo[3,4-c]pyridine-3(2H)-one] | 7 nM | 1370 nM | 
C=CC(=O)N1CCC[C@@H](Nc2nc(Nc3ccc(N4CCOC[C@@H]4C)cc3F)c3c(c2F)CNC3=O)C1 [Compound G-102] | 5 nM |  | 
C=CC(=O)N1CCCC(N(C)c2nc(-c3cnn(CCN4CCOCC4)c3)c3c(c2F)CNC3=O)C1 (stereo not drawn) [Compound G-64, 6-((1-acryloylpiperidin-3-yl)(methyl)amino)-7-fluoro-4-(1-(2-morpholinethyl)-1H-pyrazole-4-yl)-1H-pyrrolo[3,4-c]pyridine-3(2H)-one] | 62 nM | > 10000 nM | 
C=CC(=O)N1CC2CN(c3nc(-c4cnn(C)c4)c4c(c3F)CNC4=O)CC2C1 (stereo not drawn) [Compound G-89] | 5 nM |  | 
C=CC(=O)N1CCCC(Nc2nc(Nc3ccc(C(=O)N4CCOCC4)cc3)c3c(c2F)CNC3=O)C1 (stereo not drawn) [Compound G-24] | 5 nM | 1790 nM | 
C=CC(=O)N1CCCC(Nc2nc(-c3cnc(C)s3)c3c(c2F)CNC3=O)C1 (stereo not drawn) [Compound G-53] | 51 nM | 7440 nM | 
C=CC(=O)N1C[C@H](Nc2nc(Nc3ccc(N4CCN(C5COC5)C[C@@H]4C)c(F)c3)c3c(c2F)CNC3=O)CC[C@@H]1C [Compound G-95] | 5 nM |  | 
C=CC(=O)N1C[C@H](N(C)c2nc(-c3cnn(C)c3)c3c(c2F)CNC3=O)CC[C@H]1C [Compound G-99] | 18 nM |  | 
C=CC(=O)N1CCCC(Nc2nc(Nc3ccc(N4CCN(C)CC4)nc3)c3c(c2F)CNC3=O)C1 (stereo not drawn) [Compound G-18] | 41 nM | 1600 nM | 
C=CC(=O)N1CCC[C@@H](N(C)c2nc(-c3cnn(C)c3)c3c(c2F)CNC3=O)C1 [Compound G-113] | 5 nM | 6170 nM | 
